{"source": "paper PMC9465641", "about": "(Frontiers in Pharmacology, 2022)", "key": {"[1]": {"assay": "Individual drug exposure at steady state (PK/PD analysis)", "type": "in vivo, human"}, "A. baumannii": {"test_system": "A. baumannii", "assay": "MIC for colistin of causative pathogen", "type": "cell-based", "settings": "AB"}, "[2]": {"assay": "Population pharmacokinetic modeling of intravenous colistin sulfate (plasma LC-MS/MS, Phoenix NLME)", "type": "in vivo, human", "experimental": "This study was conducted at the Third Xiangya Hospital of Central South University between May 2021 and April 2022. The design of this research fully conformed to the principles of the Helsinki Accords, and the study protocol was approved by the Research Ethics Committee of the Third Xiangya Hospital of Central South University (No: 2021-S396). Written informed consent was obtained from all patients or their legal representatives.\nColistin sulfate treatment was at the discretion of their medical teams. […] Colistin sulfate was routinely subjected to therapeutic drug monitoring (TDM) in our hospital. […] Other blood samples were collected randomly from residual blood of blood gas analysis or routine blood tests. In addition, urine samples from 6 patients with catheters in the intensive care unit were collected and recorded across a dosage interval (0–12 h after dosing) after 72 h of therapy. All samples were centrifuged for 10 min (4,000 ×g), and the supernatant was immediately collected and stored at −80°C pending analysis.\nColistin A and colistin B in plasma and urinary samples were quantified using a validated ultraperformance liquid chromatography tandem mass spectrometry (LC-MS/MS) assay. Briefly, samples were pretreated with acetonitrile, and 1 μL supernatant was injected into the LC-MS/MS instrument for analysis. A Waters XBridge BEH HILIC (4.6 × 150 mm, 2.5 μm) column was used. The mobile phase, consisting of eluents A (0.1% formic acid in water, vol/vol) and B (methanol), was delivered at a flow of 0.5 ml/min. Analysis of independently prepared quality control samples indicated good reproducibility (coefficients of variation ≤12.57%), and accuracy ranged from 88.52% to 109.43%. The limit of quantification was 0.034 mg/L for colistin A and 0.059 mg/L for colistin B. Since colistin A and B had similar structures, molecular weights and pharmacokinetic characteristics, the concentrations of colistin A and B were added together and referred to as colistin ([Li et al., 2003]; [Couet et al., 2011]).\nPopulation PK analysis was performed using a non-linear mixed-effect modeling with the Phoenix® NLME software (version 8.3.4, Certara L.P. United States). The first-order conditional estimation-extended least-squares (FOCE-ELS) method was used to develop the PPK model. One- and two-compartment models with linear elimination were compared based on Akaike information criteria (AIC) and Bayesian information criterion (BIC). The inter-individual variability of PK parameters was assumed to follow a log-normal distribution and described using an exponential model, and residual variability was described by an additive, proportional, or combined error model. The coefficient of variation (CV%), goodness-of-fit plots, and the likelihood ratio test (-2 loglikelihood; -2LL) were used to evaluate the model.\nThen, a stepwise covariate modeling (SCM) method was used to explore candidate covariates on PK parameters, including age, sex, weight, ALT, AST, TBIL, DBIL, TBA, TP, ALB, UA, BUN, CrCL, WBC, NEUT, HGB, RBC, HCT, PLT, PT, TT, APTT, PA, FIB, CRP, PCT, LAC, and 24-h urine volume, where continuous covariates (e.g., age) were modeled by using the power function and categorical covariates (e.g., sex) were described by an exponential function. By comparing with the base model, a drop in objective function value (OFV) > 3.84 (p < 0.05, df = 1) during forward selection steps and an increase of OFV >6.63 (p < 0.01, df = 1) in backward elimination steps were the inclusion criteria for covariates.\nFinally, the reliability of the final model was evaluated by goodness-of-fit plots. Additionally, the performance of the final model was assessed by a prediction-corrected visual predictive check (pcVPC) of 1,000 replicates using Monte Carlo simulations, and a bootstrap analysis with 1,000 samples was conducted to evaluate the model stability."}, "[3]": {"parameters": "method as in Li et al., 2003", "settings": "Sprague-Dawley rats; ref Li et al., 2003; cited from earlier work"}, "[4]": {"settings": "patient 1, 1.0 MU q12h, CrCL 63.93 ml/min"}, "[5]": {"settings": "patient 2, 1.0 MU q12h, CrCL 138.05 ml/min"}, "[6]": {"settings": "patient 3, 0.75 MU q12h + inhaled 0.25MU q12h, CrCL 193.84 ml/min"}, "[7]": {"settings": "patient 6, 1.0 MU q12h + inhaled 0.25MU q12h, CrCL 23.79 ml/min"}, "[8]": {"settings": "patient 7, 0.75 MU q12h + inhaled 0.25MU q12h, CrCL 10.2 ml/min"}, "[9]": {"settings": "patient 8, 0.75 MU q12h + inhaled 0.25MU q12h, CrCL 62.44 ml/min"}, "[10]": {"settings": "patient 9, 0.75 MU q12h + inhaled 0.25MU q12h, CrCL 70.98 ml/min"}, "[11]": {"settings": "patient 10, 0.75 MU q12h + inhaled 0.25MU q12h, CrCL 29.3 ml/min"}, "[12]": {"settings": "patient 11, 1.0 MU q12h, CrCL 26.81 ml/min"}, "[13]": {"settings": "patient 12, 0.5 MU q8h, CrCL 9.7 ml/min"}, "[14]": {"settings": "patient 13, 0.5 MU q8h, CrCL 52.49 ml/min"}, "[15]": {"settings": "patient 14, 0.5 MU q8h, CrCL 93.28 ml/min"}, "[16]": {"settings": "patient 15, 0.75 MU q8h + inhaled 0.25MU q12h, CrCL 41.41 ml/min"}, "[17]": {"settings": "patient 16, 0.5 MU q8h + inhaled 0.25MU q12h, CrCL 45.07 ml/min"}, "[18]": {"settings": "patient 18, 0.75 MU q12h + inhaled 0.25MU q12h, CrCL 101.48 ml/min"}, "[19]": {"settings": "patient 19, 0.5 MU q8h, CrCL 91.55 ml/min"}}, "note": "Counter-ions that a name gives are not always drawn. Positions of bridges follow the written chain, without caps; N, C: chain ends. Non-standard residues stand in square brackets, D forms with d. Residues, ends and D or L forms follow the SMILES beside them. *: point of attachment. X1 = CC[C@H](C)CCCCC(=O)*; Dab = NCC[C@H](N)C(=O)O", "data": [{"smiles": "CC[C@H](C)CCCCC(=O)N[C@@H](CCN)C(=O)N[C@H](C(=O)N[C@@H](CCN)C(=O)N[C@H]1CCNC(=O)[C@H]([C@@H](C)O)NC(=O)[C@H](CCN)NC(=O)[C@H](CCN)NC(=O)[C@H](CC(C)C)NC(=O)[C@@H](CC(C)C)NC(=O)[C@H](CCN)NC1=O)[C@@H](C)O", "note": "[colistin sulfate] (X1-[Dab]T[Dab][Dab][Dab][dL]L[Dab][Dab]T; lactam 4-C)", "values": [{"measurement": "Css, avg", "setting": "[1]; [4]", "result": 1990, "unit": "ng/mL"}, {"measurement": "Css, max", "setting": "[1]; [4]", "result": 3980, "unit": "ng/mL"}, {"measurement": "Css, avg", "setting": "[1]; [5]", "result": 1170, "unit": "ng/mL"}, {"measurement": "Css, max", "setting": "[1]; [5]", "result": 2480, "unit": "ng/mL"}, {"measurement": "Css, avg", "setting": "[1]; [6]", "result": 570, "unit": "ng/mL"}, {"measurement": "Css, max", "setting": "[1]; [6]", "result": 1710, "unit": "ng/mL"}, {"measurement": "Css, min", "setting": "[1]; [6]", "result": 130, "unit": "ng/mL"}, {"measurement": "Css, avg", "setting": "[1]; [7]", "result": 2430, "unit": "ng/mL"}, {"measurement": "Css, max", "setting": "[1]; [7]", "result": 3010, "unit": "ng/mL"}, {"measurement": "Css, min", "setting": "[1]; [7]", "result": 1950, "unit": "ng/mL"}, {"measurement": "Css, avg", "setting": "[1]; [8]", "result": 1590, "unit": "ng/mL"}, {"measurement": "Css, max", "setting": "[1]; [8]", "result": 2490, "unit": "ng/mL"}, {"measurement": "Css, min", "setting": "[1]; [8]", "result": 890, "unit": "ng/mL"}, {"measurement": "Css, avg", "setting": "[1]; [9]", "result": 1150, "unit": "ng/mL"}, {"measurement": "Css, max", "setting": "[1]; [9]", "result": 2100, "unit": "ng/mL"}, {"measurement": "Css, avg", "setting": "[1]; [10]", "result": 2040, "unit": "ng/mL"}, {"measurement": "Css, max", "setting": "[1]; [10]", "result": 3020, "unit": "ng/mL"}, {"measurement": "Css, min", "setting": "[1]; [10]", "result": 1400, "unit": "ng/mL"}, {"measurement": "Css, avg", "setting": "[1]; [11]", "result": 1510, "unit": "ng/mL"}, {"measurement": "Css, max", "setting": "[1]; [11]", "result": 2480, "unit": "ng/mL"}, {"measurement": "Css, min", "setting": "[1]; [11]", "result": 870, "unit": "ng/mL"}, {"measurement": "Css, avg", "setting": "[1]; [12]", "result": 4400, "unit": "ng/mL"}, {"measurement": "Css, max", "setting": "[1]; [12]", "result": 5840, "unit": "ng/mL"}, {"measurement": "Css, avg", "setting": "[1]; [13]", "result": 2070, "unit": "ng/mL"}, {"measurement": "Css, max", "setting": "[1]; [13]", "result": 2670, "unit": "ng/mL"}, {"measurement": "Css, avg", "setting": "[1]; [14]", "result": 1490, "unit": "ng/mL"}, {"measurement": "Css, max", "setting": "[1]; [14]", "result": 2090, "unit": "ng/mL"}, {"measurement": "Css, avg", "setting": "[1]; [15]", "result": 740, "unit": "ng/mL"}, {"measurement": "Css, max", "setting": "[1]; [15]", "result": 1340, "unit": "ng/mL"}, {"measurement": "Css, avg", "setting": "[1]; [16]", "result": 2520, "unit": "ng/mL"}, {"measurement": "Css, max", "setting": "[1]; [16]", "result": 3620, "unit": "ng/mL"}, {"measurement": "Css, avg", "setting": "[1]; [17]", "result": 1580, "unit": "ng/mL"}, {"measurement": "Css, max", "setting": "[1]; [17]", "result": 2240, "unit": "ng/mL"}, {"measurement": "Css, avg", "setting": "[1]; [18]", "result": 860, "unit": "ng/mL"}, {"measurement": "Css, max", "setting": "[1]; [18]", "result": 1890, "unit": "ng/mL"}, {"measurement": "Css, min", "setting": "[1]; [18]", "result": 280, "unit": "ng/mL"}, {"measurement": "Css, avg", "setting": "[1]; [19]", "result": 1330, "unit": "ng/mL"}, {"measurement": "Css, max", "setting": "[1]; [19]", "result": 1920, "unit": "ng/mL"}, {"measurement": "Css, min", "setting": "[1]; [19]", "result": 830, "unit": "ng/mL"}, {"measurement": "MIC", "setting": "A. baumannii; isolate of patient 8", "result": 2, "unit": "µg/mL"}, {"measurement": "MIC", "setting": "A. baumannii; isolate of patient 18", "result": 0.5, "unit": "µg/mL"}, {"measurement": "MIC", "setting": "A. baumannii; isolate of patient 19", "result": 0.5, "unit": "µg/mL"}, {"measurement": "dV2dALT, exponential parameter coefficient of ALT to V2, final model estimate", "setting": "[2]; PPK model, n = 20", "result": 0.635}, {"measurement": "dCLdCrCL, bootstrap median", "setting": "[2]; bootstrap with 1,000 samples", "result": 0.373}, {"measurement": "dV2dALT, bootstrap median", "setting": "[2]; bootstrap with 1,000 samples", "result": 0.633}, {"measurement": "tvCL2, bootstrap median", "setting": "[2]; bootstrap with 1,000 samples", "result": 1.78, "unit": "L/h"}, {"measurement": "tvCL, bootstrap median", "setting": "[2]; bootstrap with 1,000 samples", "result": 1.46, "unit": "L/h"}, {"measurement": "tvV2, bootstrap median", "setting": "[2]; bootstrap with 1,000 samples", "result": 53.8, "unit": "L"}, {"measurement": "tvV, bootstrap median", "setting": "[2]; bootstrap with 1,000 samples", "result": 16.2, "unit": "L"}, {"measurement": "tvV, typical value of volume of central compartment distribution (V), final model estimate", "setting": "[2]; critically ill patients, iv, n = 20, 98 plasma concentrations, two-compartment PPK model", "result": 16.1, "unit": "L"}, {"measurement": "tvCL2, typical value of inter-compartmental clearance (CL2), final model estimate", "setting": "[2]; critically ill patients, iv, n = 20, two-compartment PPK model", "result": 1.71, "unit": "L/h"}, {"measurement": "tvV2, typical value of volume of peripheral compartment distribution (V2), final model estimate", "setting": "[2]; critically ill patients, iv, n = 20, two-compartment PPK model, at ALT 37", "result": 50.5, "unit": "L"}, {"measurement": "tvCL, typical value of central compartment clearance (CL), final model estimate", "setting": "[2]; critically ill patients, iv, n = 20, two-compartment PPK model, at CrCL 57.5", "result": 1.50, "unit": "L/h"}, {"measurement": "CL, median", "setting": "[2]; six patients with urine samples, median", "result": 1.519, "unit": "L/h"}, {"measurement": "dose recovered from urine", "setting": "[3]", "result": "0.18 ± 0.14", "unit": "%"}]}]}
